Data reported in US7417034B2, “Pharmaceutically active uridine esters” (Trommsdorff GmbH & Co. KG Arzeneimittel, priority 2001, dated 2008).
“Also recorded” adds a separate entry of the source. Like-named read-outs stand apart in the source and are kept apart here.

Legend:
[1] = tested on: permanent MCA occlusion in NMRI mice; details: for effect on infarct area (in words): versus controls; for infarct area, Mean: evaluated 2 days after, vehicle only 29.89
Procedure: The neuroprotective effects of α-lipoic acid and more pronounced of dihydrolipoic acid are well known (P. Wolz, J. Krieglstein, Lipoic Acid in Health and Disease, New York, Basel, Hong Kong, Marcel Dekker Inc., 1997, pp. 205-225). Thus, dihydrolipoic acid was chosen as a positive control for comparison reasons.
Permanent middle cerebral artery (MCA) occlusion was performed in male NMRI mice (12 to 17 animals per group) according to the method described by Welsh et al. (J. Neurochem. 1987, 846-851). Briefly, after the mice were anesthetized with tribromoethanol (600 mg/kg intraperitoneally), a small hole was drilled in the skull to expose the middle cerebral artery. The stem of the middle cerebral artery and both branches were permanently occluded by electrocoagulation. Body temperature was maintained at 37° C.±1° C. with a heating lamp during the surgical procedure. Afterwards, the mice were kept at an environmental temperature of 30° C. for 2 hours after MCA occlusion.
For histologic evaluation, the mice were anesthetized again with tribromoethanol and perfused intraperitoneally with a 1.5% solution of neutral red (0.5 ml) 2 days after middle cerebral artery occlusion. The brains were removed and stored in a fixative (4% formalin in phosphate buffer solution, pH 7.4) for 24 hours.
The tissue on the brain surface unstained by neutral red was determined (in square millimeters) as infarcted surface area by means of an image analyzing system (Kontron, Eching, Germany) according to the publication of C. Backhauβ.
The injection of compound 5′, dihydrolipoic acid, and the vehicle only was performed intraperitoneally 1 hour before MCA occlusion. Compound 5′ and dihydrolipoic acid were dissolved in 25% macrogol 400 (vehicle). The injected volume was always 0.25-0.30 ml per mouse. Doses of 100, 150, and 500 mg/kg compound 5′ and 150 mg/kg dihydrolipoic acid were used. The control group received the vehicle (0.25-0.30 ml 25% macrogol 400 per mouse) only.
The differences between compound 5′-treated, dihydrolipoic acid-treated, and vehicle-treated animals were evaluated statistically according to the ANOVA and DUNCAN test.

[2] = tested on: hippocampal pyramid cells; experiment: in-vitro Hippocampus cuts: glucose-induced over-sensitiveness of pyramid cells (population spike); assay type: cell-based, rats; details: 30 mM glucose; for IC50: amplitude of population spike, read-out: calculated IC50-value, reduction of glucose-induced over-sensitiveness; for concentration range of activity: population spike
Source text: The model used to determine the effect of the compounds of the present invention on treating diabetes and/or polyneuropathy comprises the use of in-vitro Hippocampus cuts for detecting the over-sensitiveness of pyramid cells due to the enhancement of the glucose concentration. Said over-sensitiveness could be antagonized dose-dependent by the use of a compound of the general formula (I).
The Hippocampus cuts of rats present a validated model for determination of interaction between a drug substance which is in direct contact with neuronal tissue. The interaction between a pharmaceutically active compound and the brain tissue can be examined directly, because of the maintenance of the three dimensional structure of the tissue within the in-vitro Hippocampus cut. Said compounds act on a special population of nerve cells, the pyramid cells of the Hippocampus. It is known that the synapse between pyramid cells and Schaffer-collaterals (which can be electrically stimulated) use the neurotransmitter glutamate for the process of signal transduction. The result of the electric stimulation, the so called population spike, represents the amount of activated pyramid cells. Other known models allow the in-vitro determination of a neuronal network only within a time frame of up to 8 hours. The advantage of this model is that neuronal network can be analyzed in-vitro over a much longer period after chemical or electric provocation of the cells. The cells are brought to an elevated level of stimulation which allows a long term measurement of pharmacologically active compounds under patho-physiologic conditions (W. Dimpfel et al., Antimicrobial Agents and Chemotherapy 1991, 1142-1146; W. Dimpfel et al., Eur. J. Med. Res. 1996, 1, 523-527).
Within the present method the level of stimulation was elevated by the use of an increased concentration of glucose in the superfusion medium in order to measure the antagonistic effect of the compounds of the present invention. Because of the fact that α-lipoic acid had been applied to this method (W. Dimpfel et al., Eur. J. Med. Res. 1996, 1, 523-527), compound 5′ was selected as a close related compound in order to produce reasonable results when comparing α-lipoic acid and uridine with compound 5′. Thus, α-lipoic acid and uridine were selected as reference.
21 adult male CD rats had been used within the present studies. The Hippocampus was isolated after anesthetization and exsanguination of the test animals. The middle part of the Hippocampus was fixed by means of a glue in phosphate-buffered saline (NaCl: 124 mM, KCl: 5 mM, CaCl2: 2 mM, MgSO4: 2 mM, NaH2PO4: 1.25 mM, NaHCO3: 26 mM, glucose: 10 mM; control solution: ACSF; Carl Roth, Karlsruhe, Germany). The Hippocampus was subsequent cut into slides of […] by means of a Vibratom (Rhema Labortechnik). The Hippocampus cuts were stored at least one hour before the test runs in an incubation chamber under carbogen (S. J. Schiff, G. G. Somjen, Brain Research 1985, 345, 279-284).
The experiment was carried out in a so called “Base Unit with Haas Top” (Medical Systems Corporation, U.S.A.) at a temperature of 35° C. according to the protocol of H. L. Haas and R. W. Greene (Neurotransmitter and cortical function; ed. M. Avoli, T. A. Reader, R. W. Dykes and P. Gloor, pp. 483-494, Plenum Publishing Corp.). The Hippocampus cut was placed on a piece of gauze and perfused by means of peristaltic pumps. The test apparatus was flushed with carbogen (flow rate: 200 ml per hour) in order to maintain the necessary oxygen supply.
The CA2-region was stimulated by means of a stimulus generator (laboratory computer, Pro Science) and a bipolar concentric steel electrode (Rhodes Medical Systems, U.S.A.). A pulse width of 200 μs was used and the amperage was constantly kept at 200 μA. The stimulus generator released four single stimulation signals within intervals of 20 seconds which released a total number of four population spikes in the Hippocampus cut. […]

[3] = tested on: dopamine and DOPAC concentration in the Striatum; experiment: Dopamine and DOPAC concentration in rat Striatum, sodium malonate neurotoxicity model; assay type: in vivo, Wistar rats
Source text: (§1) This example was selected to determine the effect of the compounds of the present invention on the concentration of dopamine its metabolite 3,4-dihydroxyphenyl acetic acid (DOPAC) and 5-hydroxytryptamine (5-HT or Serotonin) and its metabolite 5-hydroxyindol acetic acid (5-HIAA) in the substantia nigra and the Striatum of Wistar rats (Charles River, Sulzbach Rosenberg).
(§2) Said two brain regions were selected in order to examine dopaminergic neurons, because it is well known that said neurons are sensitive to neurotoxines which may cause M. Parkinson, Alzheimer, and Chorea Huntington. The method as described below was used to determine degenerative processes. Sodium malonate was used as a neurotoxic substance within said method.
It is known that sodium malonate increases the release von dopamine in the Striatum of the test animals. Groups of six Wistar rats each have been used as test animals. Thus, the dopamine concentration can be used as an indicator in order to determine the harmful effect of neurotoxines.
100 mg of compound 5′ were dissolved in 5 ml 50% propan-1,2-diol (Merck, Darmstadt). Four 5 ml portions of compound 5′ were administered intraperitoneal to the test animals. The first portion was administered in the evening of the first test day, the second portion during the next morning, the third portion in the evening of the second test day and the late portion during the morning of the third test day. Thirty minutes after the last application of compound 5′ 2 μmol sodium malonate dissolved in physiologic sodium chloride solution were injected into the left Striatum by means of a precision pump (flow rate 0.5 μl/min.) after having anesthetized the rats (Ketamin: 80 mg/kg and Xylasin: 6-10 mg/kg).
(§3) Four days after sodium malonate application, the Striatum and the treated and untreated part of the substantia nigra was separately excised, weighted, homogenized with perchloric acid, and centrifuged. Aliquots of the supernatants were subsequently subjected to HPLC and by the means of HPLC-ELCD the amount of dopamine, DOPAC, 5-HT, 5-HIM, and 3-methoxytyramine was […] measured.

[4] = tested on: 5-HT and 5-HIAA level in substantia nigra; experiment: 5-HT and 5-HIAA level in rat substantia nigra; assay type: in vivo, Wistar rats; details: four i.p. portions
Source text: as §1, §2
100 mg of compound 5′ were dissolved in 5 ml 50% propan-1,2-diol (Merck, Darmstadt). Four 5 ml portions of compound 5′ were administered intraperitoneal to the test animals. […]
as §3

[5] = 150 mg/kg intraperitoneally 1 hour before MCA occlusion
[6] = compound alone, four i.p. portions, p<0.05
[7] = 2 μmol sodium malonate injected into left Striatum, four days after, p<0.001

O=C(O)CCCC[C@@H](S)CCS (racemic) [dihydrolipoic acid, reference compound]
effect on infarct area (in words) ([1]; 150 mg/kg i.p.): no effect at all | infarct area, Mean [1, 5]: 27.94 square millimeters

O=C(CCCCC(S)CCS)OC[C@H]1O[C@@H](n2ccc(=O)[nH]c2=O)[C@H](O)[C@@H]1O (stereo partly drawn) [Compound 5′, (2′R,3′S,4′R,5′R)-6,8-Dimercapto-octanoic acid 5′-(2,4-dioxo-3,4-dihydro-2H-pyrimidine-1-yl)-3′,4′-dihydroxy-tetrahydrofuran-2′-ylmethyl ester]
reduction of the elevated stimulation level / over-sensitiveness (in words) ([2]; rat Hippocampus cuts): able to reduce dose-dependent the elevated stimulation level; also recorded: most effectively treated; also recorded: able to significantly reduce the increased over-sensitiveness | IC50 ([2]; rat Hippocampus cuts): 5 µM | concentration range of activity ([2]; rat Hippocampus cuts): 1 to 25 µM | compensation of malonate-induced dopamine depletion in rat striatum (in words) ([3]; FIG. 4, relatively low concentrations): can almost be compensated | change of the concentration of DOPAC in the Striatum [3, 6]: +10% | change of the concentration of dopamine in the Striatum [3, 6]: +18% | more dopamine in comparison to the application of malonate only ([3]; compound i.p. together with 2 μmol sodium malonate into left Striatum): +44% | 5-HT concentration in rat substantia nigra (in words) ([4]; FIG. 5a): significantly increase; also recorded: increased dramatically | 5-HIAA level in rat substantia nigra (in words) ([4]; FIG. 5b): significantly increase; also recorded: increased dramatically | infarct area, Mean ([1]; 100 mg/kg intraperitoneally 1 hour before MCA occlusion): 26.22 square millimeters | infarct area, Mean [1, 5]: 27.00 square millimeters | effect on infarct area (in words) ([1]; 500 mg/kg i.p.): no longer statistically reduced; also recorded: only a slight neuroprotective effect | infarct area, Mean ([1]; 500 mg/kg intraperitoneally 1 hour before MCA occlusion): 28.24 square millimeters | effect on infarcted area (in words) ([1]; lowest dose, 100 mg (100 mg/kg) i.p., versus vehicle): significantly reduced the infarcted area; also recorded: most pronounced | toxic effects in mice ([1]; mice of the MCA occlusion study, 100-500 mg/kg i.p.): no toxic effects could be detected

O=C(CCCC[C@@H]1CCSS1)OC[C@H]1O[C@@H](n2ccc(=O)[nH]c2=O)[C@H](O)[C@@H]1O [Compound R-5, (2′R,3R,3′S,4′R,5′R)-5-[1,2]Dithiolan-3-yl-pentanoic acid 5′-(2,4-dioxo-3,4-dihydro-2H-pyrimidine-1-yl)-3′,4′-dihydroxy-tetrahydrofuran-2′-ylmethyl ester]
IC50 ([2]; rat Hippocampus cuts): 8 µM | concentration range of activity ([2]; rat Hippocampus cuts): 1 to 15 µM

O=C(CCCC[C@H]1CCSS1)OC[C@H]1O[C@@H](n2ccc(=O)[nH]c2=O)[C@H](O)[C@@H]1O [Compound S-5, (2′R,3S,3′S,4′R,5′R)-5-[1,2]Dithiolan-3-yl-pentanoic acid 5′-(2,4-dioxo-3,4-dihydro-2H-pyrimidine-1-yl)-3′,4′-dihydroxy-tetrahydrofuran-2′-ylmethyl ester]
IC50 ([2]; rat Hippocampus cuts): 4 µM | concentration range of activity ([2]; rat Hippocampus cuts): 1 to 10 µM

O=C([O-])CC(=O)[O-].[Na+].[Na+] [malonate, sodium malonate, reference compound]
change of the concentration of DOPAC [3, 7]: −30% | change of the concentration of dopamine [3, 7]: −44%

O=c1ccn([C@@H]2O[C@H](CO)[C@@H](O)[C@H]2O)c(=O)[nH]1 [uridine]
IC50 ([2]; Rattus norvegicus): 40 µM | reduction of the elevated stimulation level / over-sensitiveness (in words) ([2]; rat Hippocampus cuts): able to reduce dose-dependent the elevated stimulation level; also recorded: only weaker effects; also recorded: much weaker effects

O=C(O)CCCCC1CCSS1 (stereo not drawn) [α-lipoic acid, reference compound]
reduction of the elevated stimulation level / over-sensitiveness (in words) ([2]; rat Hippocampus cuts): able to reduce dose-dependent the elevated stimulation level; also recorded: only weaker effects; also recorded: much weaker effects | IC50 ([2]; rat Hippocampus cuts): ~200 µM | concentration range of activity ([2]; rat Hippocampus cuts): ≤ 400 µM
